Measurements from PubChem BioAssay AID1259407 (Chemical Carcinogenesis Research Information System (CCRIS), 2018).
Calls of active or inactive are those of the source. The rule behind the calls is not given here.

System: CCRIS mutagenicity, Ames/micronucleus/aberration tests
Experiment: CCRIS mutagenicity studies
[1] = Test System: AMES SALMONELLA TYPHIMURIUM, Strain/Indicator: TA98, Metabolic Activation: NONE, Method: STANDARD PLATE
[2] = Test System: AMES SALMONELLA TYPHIMURIUM, Strain/Indicator: TA98, Metabolic Activation: RAT, LIVER, S-9, AROCLOR 1254, Method: STANDARD PLATE
[3] = Test System: AMES SALMONELLA TYPHIMURIUM, Strain/Indicator: TA100, Metabolic Activation: NONE, Method: STANDARD PLATE
[4] = Test System: AMES SALMONELLA TYPHIMURIUM, Strain/Indicator: TA100, Metabolic Activation: RAT, LIVER, S-9, AROCLOR 1254, Method: STANDARD PLATE
[5] = Test System: AMES SALMONELLA TYPHIMURIUM, Strain/Indicator: TA1535, Metabolic Activation: NONE, Method: STANDARD PLATE
[6] = Test System: AMES SALMONELLA TYPHIMURIUM, Strain/Indicator: TA1535, Metabolic Activation: RAT, LIVER, S-9, AROCLOR 1254, Method: STANDARD PLATE
[7] = Test System: AMES SALMONELLA TYPHIMURIUM, Strain/Indicator: TA1537, Metabolic Activation: NONE, Method: STANDARD PLATE
[8] = Test System: AMES SALMONELLA TYPHIMURIUM, Strain/Indicator: TA1537, Metabolic Activation: RAT, LIVER, S-9, AROCLOR 1254, Method: STANDARD PLATE
[9] = Test System: AMES SALMONELLA TYPHIMURIUM, Strain/Indicator: TA1538, Metabolic Activation: NONE, Method: STANDARD PLATE
[10] = Test System: AMES SALMONELLA TYPHIMURIUM, Strain/Indicator: TA1538, Metabolic Activation: RAT, LIVER, S-9, AROCLOR 1254, Method: STANDARD PLATE

CO/N=C(\C(=O)N[C@@H]1C(=O)N2C(C(=O)O)=C(CSC(=O)c3ccco3)CS[C@H]12)c1csc(N)n1
mutagenic call [1]: inactive; negative
mutagenic call [2]: inactive; negative
mutagenic call [3]: inactive; negative
mutagenic call [4]: inactive; negative
mutagenic call [5]: inactive; negative
mutagenic call [6]: inactive; negative
mutagenic call [7]: inactive; negative
mutagenic call [8]: inactive; negative
mutagenic call [9]: inactive; negative
mutagenic call [10]: inactive; negative
mutagenic call (Test System: CHINESE HAMSTER V-79, Strain/Indicator: V-79 (HPRT)/6-THIOGUANINE, Metabolic Activation: NONE): inactive; negative
mutagenic call (Test System: CHINESE HAMSTER V-79, Strain/Indicator: V-79 (HPRT)/6-THIOGUANINE, Metabolic Activation: RAT, LIVER, S-9, AROCLOR 1254): inactive; negative
mutagenic call (Test System: UDS RAT HEPATOCYTES, Strain/Indicator: THY INCORP, Metabolic Activation: NONE, Method: IN VIVO-IN VITRO): inactive; negative

COC(=O)C(C)(C)Oc1ccc(-c2ccc(Cl)cc2)cc1
mutagenic call [1]: inactive; negative
mutagenic call [2]: inactive; negative
mutagenic call (Test System: AMES SALMONELLA TYPHIMURIUM, Strain/Indicator: TA98, Metabolic Activation: RAT, LIVER, S-9, PHENOBARBITONE AND BETA-NAPHTHOFLAVONE, Method: PREINCUBATION): inactive; negative
mutagenic call [3]: inactive; negative
mutagenic call [4]: inactive; negative
mutagenic call (Test System: AMES SALMONELLA TYPHIMURIUM, Strain/Indicator: TA100, Metabolic Activation: RAT, LIVER, S-9, PHENOBARBITONE AND BETA-NAPHTHOFLAVONE, Method: PREINCUBATION): inactive; negative
mutagenic call [5]: inactive; negative
mutagenic call [6]: inactive; negative
mutagenic call [7]: inactive; negative
mutagenic call [8]: inactive; negative
mutagenic call [9]: inactive; negative
mutagenic call [10]: inactive; negative
mutagenic call (Test System: E. COLI, Strain/Indicator: WP2 (PKM101), Metabolic Activation: NONE, Method: STANDARD PLATE): inactive; negative
mutagenic call (Test System: E. COLI, Strain/Indicator: WP2 (PKM101), Metabolic Activation: RAT, LIVER, S-9, AROCLOR 1254, Method: STANDARD PLATE): inactive; negative
mutagenic call (Test System: E. COLI, Strain/Indicator: WP2 (PKM101), Metabolic Activation: RAT, LIVER, S-9, PHENOBARBITONE AND BETA-NAPHTHOFLAVONE, Method: PREINCUBATION): inactive; negative
mutagenic call (Test System: E. COLI, Strain/Indicator: WP2 UVRA (PKM101), Metabolic Activation: NONE, Method: STANDARD PLATE): inactive; negative
mutagenic call (Test System: E. COLI, Strain/Indicator: WP2 UVRA (PKM101), Metabolic Activation: RAT, LIVER, S-9, AROCLOR 1254, Method: STANDARD PLATE): inactive; negative
mutagenic call (Test System: UDS RAT HEPATOCYTES, Metabolic Activation: NONE, Method: AUTORADIOGRAPHY): inactive; negative
mutagenic call (Test System: UDS RAT HEPATOCYTES, Strain/Indicator: BROMODEOXYURIDINE INCORP, Metabolic Activation: NONE): active; positive

c1ccc2c(c1)oc1ccccc12
mutagenic call (End Point: IN VITRO CHROMOSOMAL ABERRATIONS, Test System: CHINESE HAMSTER OVARY CELLS, Metabolic Activation: NONE): inactive; negative
mutagenic call (End Point: IN VITRO CHROMOSOMAL ABERRATIONS, Test System: CHINESE HAMSTER OVARY CELLS, Metabolic Activation: RAT, LIVER, S-9, AROCLOR 1254): inactive; negative
mutagenic call (Test System: AMES SALMONELLA TYPHIMURIUM, Strain/Indicator: TA98, Metabolic Activation: HAMSTER LIVER S-9, AROCLOR 1254, Method: STANDARD PLATE): inactive; negative
mutagenic call [1]: inactive; negative
mutagenic call (Test System: AMES SALMONELLA TYPHIMURIUM, Strain/Indicator: TA98, Metabolic Activation: RAT LIVER S-9, AROCLOR 1254, Method: STANDARD PLATE): inactive; negative
mutagenic call (Test System: AMES SALMONELLA TYPHIMURIUM, Strain/Indicator: TA98, Metabolic Activation: RAT, LIVER, S-9, PHENOBARBITAL AND NAPHTHOFLAVONE, Method: STANDARD PLATE): inactive; negative
mutagenic call (Test System: AMES SALMONELLA TYPHIMURIUM, Strain/Indicator: TA98, Metabolic Activation: S-9, PHENOBARBITAL AND 5,6-BENZOFLAVONE, Method: STANDARD PLATE): inactive; negative
mutagenic call (Test System: AMES SALMONELLA TYPHIMURIUM, Strain/Indicator: TA100, Metabolic Activation: HAMSTER LIVER S-9, AROCLOR 1254, Method: STANDARD PLATE): inactive; negative
mutagenic call [3]: inactive; negative
mutagenic call (Test System: AMES SALMONELLA TYPHIMURIUM, Strain/Indicator: TA100, Metabolic Activation: RAT LIVER S-9, AROCLOR 1254, Method: STANDARD PLATE): inactive; negative
mutagenic call (Test System: AMES SALMONELLA TYPHIMURIUM, Strain/Indicator: TA100, Metabolic Activation: RAT, LIVER, S-9, PHENOBARBITAL AND NAPHTHOFLAVONE, Method: STANDARD PLATE): inactive; negative
mutagenic call (Test System: AMES SALMONELLA TYPHIMURIUM, Strain/Indicator: TA100, Metabolic Activation: S-9, PHENOBARBITAL AND 5,6-BENZOFLAVONE, Method: STANDARD PLATE): inactive; negative

c1ccc(OP(Oc2ccccc2)Oc2ccccc2)cc1
mutagenic call (Test System: AMES SALMONELLA TYPHIMURIUM, Strain/Indicator: TA98, Metabolic Activation: HAMSTER, LIVER, S-9, AROCLOR 1254 (10%), Method: PREINCUBATION): inactive; negative
mutagenic call (Test System: AMES SALMONELLA TYPHIMURIUM, Strain/Indicator: TA98, Metabolic Activation: NONE, Method: PREINCUBATION): inactive; negative
mutagenic call (Test System: AMES SALMONELLA TYPHIMURIUM, Strain/Indicator: TA98, Metabolic Activation: RAT, LIVER, S-9, AROCLOR 1254 (10%), Method: PREINCUBATION): inactive; negative
mutagenic call (Test System: AMES SALMONELLA TYPHIMURIUM, Strain/Indicator: TA100, Metabolic Activation: HAMSTER, LIVER, S-9, AROCLOR 1254 (10%), Method: PREINCUBATION): inactive; negative
mutagenic call (Test System: AMES SALMONELLA TYPHIMURIUM, Strain/Indicator: TA100, Metabolic Activation: NONE, Method: PREINCUBATION): inactive; negative
mutagenic call (Test System: AMES SALMONELLA TYPHIMURIUM, Strain/Indicator: TA100, Metabolic Activation: RAT, LIVER, S-9, AROCLOR 1254 (10%), Method: PREINCUBATION): inactive; negative
mutagenic call (Test System: AMES SALMONELLA TYPHIMURIUM, Strain/Indicator: TA1535, Metabolic Activation: HAMSTER, LIVER, S-9, AROCLOR 1254 (10%), Method: PREINCUBATION): inactive; negative
mutagenic call (Test System: AMES SALMONELLA TYPHIMURIUM, Strain/Indicator: TA1535, Metabolic Activation: NONE, Method: PREINCUBATION): inactive; negative
mutagenic call (Test System: AMES SALMONELLA TYPHIMURIUM, Strain/Indicator: TA1535, Metabolic Activation: RAT, LIVER, S-9, AROCLOR 1254 (10%), Method: PREINCUBATION): inactive; negative
mutagenic call (Test System: AMES SALMONELLA TYPHIMURIUM, Strain/Indicator: TA1537, Metabolic Activation: HAMSTER, LIVER, S-9, AROCLOR 1254 (10%), Method: PREINCUBATION): inactive; negative
mutagenic call (Test System: AMES SALMONELLA TYPHIMURIUM, Strain/Indicator: TA1537, Metabolic Activation: NONE, Method: PREINCUBATION): inactive; negative
mutagenic call (Test System: AMES SALMONELLA TYPHIMURIUM, Strain/Indicator: TA1537, Metabolic Activation: RAT, LIVER, S-9, AROCLOR 1254 (10%), Method: PREINCUBATION): inactive; negative

COc1cc(O)c2c(c1)C(=O)c1c(O)c(C)cc(O)c1C2=O
mutagenic call [7]: inactive; negative
mutagenic call (Test System: AMES SALMONELLA TYPHIMURIUM, Strain/Indicator: TA1537, Metabolic Activation: S-9, Method: STANDARD PLATE): active; positive

Clc1ccc(CN2[C@@H]3c4ccccc4-c4ccccc4[C@@H]32)cc1 (stereo not given in full)
mutagenic call [3]: active; positive

CCN(CC)c1ccc(N=Nc2c(Cl)cc([N+](=O)[O-])cc2[N+](=O)[O-])c(NC(C)=O)c1
mutagenic call (End Point: IN VITRO CHROMOSOMAL ABERRATIONS, Test System: CHL CELLS, Metabolic Activation: NONE): inactive; negative; precipitation of test chemical observed above 0.01 mg/ml
